Assay results as given in ChEMBL document CHEMBL5338737, “Lysine-Specific Demethylase 1 Promises to Be a Novel Target in Cancer Drug Resistance: Therapeutic Implications” (J Med Chem, 2023).

Experiments:
[1] = biological target: T1, Lysine-specific histone demethylase 1A (Homo sapiens, UniProt O60341)
Description: Inhibition of LSD1 (unknown origin)

[2] = biological target: T1, Lysine-specific histone demethylase 1A; test: Inhibition of recombinant LSD1 (unknown origin) incubated for 1 hr by fluorescence based analysis

IC50 [1] [µM]	IC50 [2] [µM]	SMILES
0.127	–	C/C(=N\NC(=O)c1cccc(S(=O)(=O)N2CCN(C)CC2)c1)c1cc(Cl)ccc1O
–	0.4	COc1cc2c(c(O)c1OC)c(=O)c1ccccc1n2C [ARBORININE]
< 1	–	NC1CC1c1ccc(NC(=O)c2ccc(O)c3ncccc23)cc1 (stereo not drawn)
